According to US12139477B2, “Compounds, salts thereof and methods for treatment of diseases” (ACADIA PHARMACEUTICALS INC., priority 2017, dated 2024):

What was measured:
Format in all cases: cell-based
5HT2A [1] = target: T1, 5HT2A (Homo sapiens, UniProt P28223); test: Beta-arrestin recruitment assay (Tango technology, antagonist mode); design: engineered protease cleavage site followed by tethered transcription factor (C); conditions: read-out: 5HT2A (pIC50) Beta-arrestin (converted)
Excerpt: Beta-Arrestin Recruitment Assay:
Detecting GPCR Signaling Using the Tango Technology
GPCR signaling through beta-arrestin was detected by the Tango Technology at Thermofisher. This technology is based upon the interaction of intracellular beta-arrestin proteins and the target receptor. Upon ligand binding to the target receptor, the protease tagged arrestin is stimulated and recruited to the engineered protease site on the C-terminus of the GPCR, which triggers release of the tethered transcription factor. The free transcription factor then enters the nucleus and stimulates the beta-lactamase (bla) activity.
Test compounds are received at 1000× (or greater) of the desired starting concentration in 100% DMSO. The 1000× test compounds are serially diluted (10 point […] increments) in 100% DMSO.
Antagonist Assay Protocol:
An Agonist assay screen (see above) is run to obtain the EC80 concentration of the known activator to add in step 3.
1. 32 μL of cells diluted in Assay Media to appropriate cell density are added to the assay plate. If needed, cells are incubated at 37° C./5% CO2 for 6 or 16-24 hours (depending upon cell line specifics) before compound is added.
2. 40 nL of 1000× compound or known antagonist titration plus 4 μL of Assay Media is added to the cells in the assay plate and incubated for 30 minutes at 37° C./5% CO2 in a humidified incubator.
3. 4 μL of the 10×EC80 concentration of agonist, as determined in an Agonist assay, is added to all wells containing test compound and known inhibitor to bring the final assay volume to 40 μL.
4. 4 μL of Assay Media is added to remaining control wells to bring the volume up to 40 μL.
5. The assay plate is incubated for 5 or 16 hours (depending upon cell line specifics) at 37° C./5% CO2 in a humidified incubator.
6. 8 μL of the Substrate Loading Solution is added to the assay plate.
7. The assay plate is incubated for 2 hours at room temperature, in the dark.
8. The assay plate is read on a fluorescence plate reader (Tecan Safire2) and the data is analyzed.
SelectScreen Cell-Based GPCR Profiling Service uses XLfit from IDBS. The dose response curve is curve fit to model number 205 (sigmoidal dose-response model). Custom logic was built in-house for the data analysis tool to address the different compound characteristics that can be observed with functional assays. Using this logic the relative EC50/IC50 value for each given compound is provided.

hERG channel = target: T2, hERG channel (Homo sapiens, UniProt Q12809); test: hERG assay, whole cell recordings in CHO cells (AVIVA); conditions: CHO cells stably expressing hERG, pH 7.4
T2 construct: host or cells: CHO cells, stably transfected
Procedure: The most common mechanism for these adverse events is the inhibition of one or more cardiac potassium channels, in particular hERG. This current is important for cardiac myocyte repolarization and is a common target for drugs that prolong the QT interval. Test articles in this study were therefore characterized to determine their ability to inhibit the hERG channel. Ion channel activity was measured at AVIVA Biosciences Corporation (San Diego, CA), using a stably transfected Chinese Hamster Ovary (CHO) cell line expressing the hERG mRNA.
Cells: AVIVA's CHO cell line, which stably expresses hERG channels, was used for the study. Cells were cultured in DMEM/F12 containing 10% FBS, 1% penicillin/streptomycin and 500 μg/ml G418. Before testing, cells were harvested using Accumax (Innovative Cell Technologies).
Solutions: For electrophysiological recordings, the following solutions were used: External Solution: 2 mM CaCl2); 2 mM MgCl2; 4 mM KCl; 150 mM NaCl; 10 mM Glucose; 10 mM HEPES; 305-315 mOsm; pH 7.4 (adjusted with 5M NaOH); Internal Solution: 140 mM KCl; 10 mM MgCl2; 6 mM EGTA; 5 mM HEPES-Na; 5 mM ATP-Mg; 295-305 mOsm; pH 7.25 (adjusted with 1M KOH).
Electrophysiology: Whole cell recordings were performed using PX 7000A (Axon Instruments) with AVIVA's SealChip™ technology. Cells were voltage clamped at a holding potential of −80 mV. The hERG current was then activated by a depolarizing step to −50 mV for 300 ms. This first step at −50 mV was used as a baseline for measuring peak amplitude of the tail current. Next, a voltage step to +20 mV was applied for 5 s to activate the channels. Finally, a step back to −50 mV for 5 s removed activation and the deactivating tail current was recorded.
Test Article Handling and Dilutions: All test articles were prepared from 10 mM DMSO stock solutions provided by Sponsor. Solutions were mixed by sonication for 20 min, followed by vigorous vortexing. Prior to testing, compounds were diluted to test concentrations in glass vials using External Solution. Dilutions were prepared no longer than 20 min prior to use.
Electrophysiology Procedures: After achieving whole cell configuration, cells were monitored for 90 s to assess stability and then washed with External Solution for 66 s. The voltage protocol previously described was then applied to the cells every 12 s throughout the procedure. Only stable cells with recording parameters above threshold (see Quality Control section) were allowed to enter the drug addition procedure. External solution containing 0.1% DMSO (vehicle) was applied to the cells to establish a baseline. […] Test article solutions were added to cells in 4 separate additions. Cells were kept in test solution until effect of the test article reached steady state, to a maximum of 12 min. Next, 1 μM cisapride (positive control) was added. Finally, washout with External Solution was performed until the recovery current reached steady state.
Data Analysis: Data analysis was performed using DataXpress (Axon Instruments), Clampfit (Axon Instruments) and Origin (OriginLab Corporation) software.

5HT2A [2] = target: T1, 5HT2A; test: Receptor Selection and Amplification (R-SAT) functional assay; design: expressed in transfected cells; host or cells: NIH3T3 cells, pSI mammalian expression vector; conditions: NIH3T3 cells; Ki from IC50 by Cheng and Prussoff; read-out: 5-HT2a (pKi) (R-SAT) (converted)
Excerpt: Receptor Selection and Amplification (R-SAT) Assays. […] The IC50 determined in the RSAT assay was converted into a Ki value using the method of Cheng and Prussoff, Biochem Pharmacol., 1973 Dec. 1; 22(23):3099-108. pKi is the negative of the log(Ki).

T1 sequence (P28223 whole entry): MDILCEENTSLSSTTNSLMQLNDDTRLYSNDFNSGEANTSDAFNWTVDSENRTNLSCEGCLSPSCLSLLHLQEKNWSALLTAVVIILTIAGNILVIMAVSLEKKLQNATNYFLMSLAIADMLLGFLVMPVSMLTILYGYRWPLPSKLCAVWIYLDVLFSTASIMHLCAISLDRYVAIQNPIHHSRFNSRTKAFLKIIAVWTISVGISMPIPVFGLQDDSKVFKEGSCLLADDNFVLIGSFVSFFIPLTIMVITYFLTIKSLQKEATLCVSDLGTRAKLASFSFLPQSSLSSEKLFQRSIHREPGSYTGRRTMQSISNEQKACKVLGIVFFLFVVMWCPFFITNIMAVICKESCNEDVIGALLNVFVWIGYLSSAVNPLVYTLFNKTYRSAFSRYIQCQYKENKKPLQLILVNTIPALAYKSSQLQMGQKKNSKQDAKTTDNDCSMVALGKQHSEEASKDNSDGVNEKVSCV
T2 sequence (Q12809 whole entry): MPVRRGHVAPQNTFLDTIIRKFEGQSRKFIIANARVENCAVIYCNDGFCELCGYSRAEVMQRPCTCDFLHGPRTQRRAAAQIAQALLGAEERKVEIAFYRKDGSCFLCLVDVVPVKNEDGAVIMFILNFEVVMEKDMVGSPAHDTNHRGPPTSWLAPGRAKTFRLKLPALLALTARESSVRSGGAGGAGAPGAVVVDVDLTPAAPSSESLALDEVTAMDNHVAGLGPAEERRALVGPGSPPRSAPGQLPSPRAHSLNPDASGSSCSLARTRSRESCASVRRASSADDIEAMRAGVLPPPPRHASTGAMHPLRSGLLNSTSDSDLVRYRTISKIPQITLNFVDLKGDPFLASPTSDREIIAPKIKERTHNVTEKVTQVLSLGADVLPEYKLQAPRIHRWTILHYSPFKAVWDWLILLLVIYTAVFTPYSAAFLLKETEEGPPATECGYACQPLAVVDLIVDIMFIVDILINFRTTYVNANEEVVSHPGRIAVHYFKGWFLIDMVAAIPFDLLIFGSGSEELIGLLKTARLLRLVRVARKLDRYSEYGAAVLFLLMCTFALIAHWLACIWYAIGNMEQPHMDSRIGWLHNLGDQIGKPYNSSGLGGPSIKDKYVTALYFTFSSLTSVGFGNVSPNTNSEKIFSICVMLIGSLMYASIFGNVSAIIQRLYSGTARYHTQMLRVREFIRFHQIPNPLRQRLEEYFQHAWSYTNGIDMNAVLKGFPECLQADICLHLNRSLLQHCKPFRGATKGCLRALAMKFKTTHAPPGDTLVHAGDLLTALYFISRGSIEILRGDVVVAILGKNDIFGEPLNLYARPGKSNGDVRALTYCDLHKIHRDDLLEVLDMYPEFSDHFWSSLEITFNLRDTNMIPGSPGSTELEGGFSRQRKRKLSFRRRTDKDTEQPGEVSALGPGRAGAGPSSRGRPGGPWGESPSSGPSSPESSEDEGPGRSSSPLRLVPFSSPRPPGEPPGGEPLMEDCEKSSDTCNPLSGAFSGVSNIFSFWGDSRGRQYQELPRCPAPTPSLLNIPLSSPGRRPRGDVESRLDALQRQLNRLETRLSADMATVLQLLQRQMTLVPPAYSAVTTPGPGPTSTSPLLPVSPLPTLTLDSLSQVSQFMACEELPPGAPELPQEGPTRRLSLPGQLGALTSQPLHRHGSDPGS

Structure (SMILES)	IC50 (5HT2A [1])	Ki (5HT2A [2])	inhibition at 1 µM (hERG channel)
Cc1c[nH]c2ccc(CNC(=O)N(Cc3ccc(F)cc3F)C3CCN(C)CC3)cc12 [Example 21]	0.2 µM		
Cc1cc2cc(CNC(=O)N(Cc3ccc(F)cc3F)C3CCN(C)CC3)ccc2n1C [Example 25]	0.1 µM		
CN1CCC(N(Cc2ccc(F)cc2F)C(=O)NCc2ccc3ncccc3c2)CC1 [Example 27]	0.0794 µM		
CN1CCC(N(Cc2ccc(F)cc2F)C(=O)NCc2ccc3c(c2)OC(C)(C)C=C3)CC1 [Example 34]	0.316 µM		
CC(C)Oc1ccc(CNC(=O)N(Cc2ccc(C#N)cc2F)C2CCN(C)CC2)cc1 [Example 43]	0.126 µM		42%
CC(C)Oc1ccc(CNC(=O)N(Cc2ccc([N+](=O)[O-])cc2F)C2CCN(C)CC2)cc1 [Example 44]	0.158 µM		70%
O=C(O)C(F)(F)F.[2H]C([2H])([2H])C(N1CCC(N(Cc2ccc(F)cc2F)C(=O)NCc2ccc(OC(C)C)cc2)CC1)C([2H])([2H])[2H] [Example 75, 1-[(2,4-difluorophenyl)methyl]-1-{1-[(1,1,1,3,3,3-^2H6)propan-2-yl]piperidin-4-yl}-3-{[4-(propan-2-yloxy)phenyl]methyl}urea; Trifluoroacetic Acid]	0.00398 µM		
C#CCOc1ccc(CNC(=O)N(Cc2ccc(F)cc2F)C2CCN(C)CC2)cc1 [Example 148, 1-[(2,4-difluorophenyl)methyl]-1-(1-methylpiperidin-4-yl)-3-{[4-(prop-2-yn-1-yloxy)phenyl]methyl}urea; Trifluoroacetic Acid]		0.002 µM	33%
CC(C)(C)Oc1ccc(CNC(=O)N(Cc2ccc(F)cc2F)C2CCNCC2)cc1 [Example 149, 3-{[4-(tert-butoxy)phenyl]methyl}-1-[(2,4-difluorophenyl)methyl]-1-(piperidin-4-yl)urea; Trifluoroacetic Acid]		0.001 µM	40%
CN1CCC(N(Cc2ccc(F)cc2F)C(=O)NCc2ccc(OCCCF)cc2)CC1 [Example 151, 3-[(2,4-difluorophenyl)methyl]-1-{[4-(3-fluoropropoxy)phenyl]methyl}-3-(1-methylpiperidin-4-yl)urea; Trifluoroacetic Acid]		0.002 µM	16%
CN1CCC(N(Cc2ccc(F)cc2F)C(=O)NCc2ccc(C(C)(F)F)cc2)CC1 [Example 152, 1-{[4-(1,1-difluoroethyl)phenyl]methyl}-3-[(2,4-difluorophenyl)methyl]-3-(1-methylpiperidin-4-yl)urea; Trifluoroacetic Acid]		0.00251 µM	38%
CN1CCC(N(Cc2ccc(F)cc2F)C(=O)NCc2ccc(OC(CF)CF)cc2)CC1 [Example 153, 3-[(2,4-difluorophenyl)methyl]-1-({4-[(1,3-difluoropropan-2-yl)oxy]phenyl}methyl)-3-(1-methylpiperidin-4-yl)urea; Trifluoroacetic Acid]		0.00158 µM	29%
CN1CCC(N(Cc2ccc(F)cc2F)C(=O)NCc2ccc(OCC(F)F)cc2)CC1 [Example 154, 3-{[4-(2,2-difluoroethoxy)phenyl]methyl}-1-[(2,4-difluorophenyl)methyl]-1-(1-methylpiperidin-4-yl)urea; Trifluoroacetic Acid]		0.00126 µM	23%
CN1CCC(N(Cc2ccc(F)cc2F)C(=O)NCc2ccc3c(c2)C=CC(C)(C)O3)CC1 [Example 155, 1-[(2,4-difluorophenyl)methyl]-3-[(2,2-dimethyl-2H-chromen-6-yl)methyl]-1-(1-methylpiperidin-4-yl)urea; Trifluoroacetic Acid]		0.000158 µM	47%
O=C(NCc1ccc(OC2CC2)cc1)N(Cc1ccc(F)cc1F)C1CCNCC1 [Example 157, 1-[(4-cyclopropoxyphenyl)methyl]-3-[(2,4-difluorophenyl)methyl]-3-(piperidin-4-yl)urea; Trifluoroacetic Acid]		0.000631 µM	20%
CC1(C)Cc2cc(CNC(=O)N(Cc3ccc(F)cc3F)C3CCNCC3)ccc2O1 [Example 158, 1-[(2,4-difluorophenyl)methyl]-3-[(2,2-dimethyl-2,3-dihydro-1-benzofuran-5-yl)methyl]-1-(piperidin-4-yl)urea; Trifluoroacetic Acid]		0.000794 µM	8%

More lines, main results first:

IC50 (5HT2A [1])	Ki (5HT2A [2])	Structure (SMILES)	inhibition at 1 µM (hERG channel)
0.0158 µM		CN1CCC(N(Cc2ccc(F)cc2F)C(=O)NCc2ccc3c(c2)CCN3C)CC1 [Example 23]	13%
0.126 µM		Cc1noc2cc(CNC(=O)N(Cc3ccc(F)cc3F)C3CCN(C)CC3)ccc12 [Example 24]	10%
0.2 µM		CN1CCC(N(Cc2ccc(F)cc2F)C(=O)NCc2ccc3cnn(C)c3c2)CC1 [Example 35]	
0.0251 µM		Cc1cc2cc(CNC(=O)N(Cc3ccc(F)cc3F)C3CCN(C)CC3)ccc2[nH]1 [Example 36]	29%
0.631 µM		CN1CCC(N(Cc2ccc(F)cc2F)C(=O)NCc2ccc3c(c2)CCS3(=O)=O)CC1 [Example 37]	8%
0.00398 µM		CN1CCC(N(Cc2ccc(F)cc2F)C(=O)NCc2ccc3c(c2)CCC3)CC1 [Example 38]	
0.0158 µM		CN1CCC(N(Cc2ccc(F)cc2F)C(=O)NCc2ccc3ncsc3c2)CC1 [Example 39]	21%
0.251 µM		Cc1n[nH]c2ccc(CNC(=O)N(Cc3ccc(F)cc3F)C3CCN(C)CC3)cc12 [Example 42]	
